Patent US20240246918A1, “COMPOUNDS AND COMPOSITIONS AS EIF4E INHIBITORS AND THE USES THEREOF” (Ribometrix, Inc., priority 2022, published 2024)
Where two headings read alike, the source gives them in different places.

Experiments:
[1] = system: cap-dependent translation in Flp-In-293 reporter cells; assay: Cellular cap-dependent translation inhibition assay (dual luciferase assay, DLA; Fluc/Rluc ratio, 24 hours); format: cell-based
human eIF4E protein = molecular target: T1, human eIF4E protein (Homo sapiens, UniProt P06730); assay: Biochemical competitive binding assay (TR-FRET competition, EDA-m7GDP-ATTO-647N probe); details: read-out: hEIF4E TR-FRET IC50
T1 construct: purchased Novus NBP-45314
T1 sequence (P06730 whole entry): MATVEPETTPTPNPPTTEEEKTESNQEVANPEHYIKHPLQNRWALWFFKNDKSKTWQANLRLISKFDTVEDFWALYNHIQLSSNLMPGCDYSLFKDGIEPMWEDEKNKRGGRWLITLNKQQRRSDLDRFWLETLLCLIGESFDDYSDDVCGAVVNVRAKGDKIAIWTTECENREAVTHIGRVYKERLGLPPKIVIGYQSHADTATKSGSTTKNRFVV
Summary of the method: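 IC50 values come from 4-parameter fits of the normalized 665/620 nm TR-FRET ratio. Compound was first incubated 15 min with 4 nM recombinant His-eIF4E bound to 2.5 nM Eu-anti-His antibody, then 15 min with 5 nM m7GDP-ATTO-647N tracer, in pH 7.5 HEPES buffer with 100 mM KCl, Tween-20 and BSA.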

[2] = system: COLO 205 colorectal tumor cells; assay: Tumor cell viability inhibition assay (CellTiter-Glo 2.0, 72 hours); format: cell-based; details: COLO 205 cell viability
Summary of the method: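 IC50 derived by 4-parameter fitting after normalizing luminescence to DMSO and max-inhibition wells. Compounds tested as 11 concentrations in 4-fold steps on COLO 205 cells seeded at 1500 per well in RPMI-1640/10% FBS; ATP content measured with CellTiter-Glo 2.0 after 72 h.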

[3] = dual luciferase assay, Flp-In-293 reporter cells, 24 hours, Fluc/Rluc ratio, read-out: DLA 205 IC50
[4] = Homo sapiens, Flp-In-293, 24 h, dual luciferase assay, Flp-In-293 reporter cells, 24 hours, Fluc/Rluc ratio, read-out: DLA 205 IC50

Compound | IC50 (human eIF4E protein) | IC50 [2] | IC50 ([2]; Homo sapiens, COLO 205, 72 h) | IC50 [1, 3] | IC50 [1, 4] | IC50 ([1]; Homo sapiens, Flp-In-293, 24 h, read-out: DLA 205 IC50, dual luciferase assay, Flp-In-293 reporter cells, 24 hours, Fluc/Rluc ratio) | IC50 ([2]; Homo sapiens)
Cc1cc(-c2cc(Cl)ccc2OCCn2c(C)nc3c(c2=O)CC(N(CC(F)(F)F)C2CCC2)CC3)c2scc(C(=O)NS(C)(=O)=O)c2n1 (stereo not drawn) [Compound 87] | < 100 nM | – | < 5000 nM | – | < 1000 nM | – | –
COC1CCN(C2CCc3nc(C)n(CCOc4ccc(Cl)cc4-c4cc(C)nc5c(C(=O)NS(C)(=O)=O)csc45)c(=O)c3C2)CC1 (stereo not drawn) [Compound 79] | < 100 nM | – | < 5000 nM | – | < 1000 nM | – | –
Cc1cc(-c2cc(Cl)ccc2OCCn2c(C)nc3c(c2=O)CC(N2CC(N4CCOCC4)C2)CC3)c2scc(C(=O)O)c2n1 (stereo not drawn) [Compound 17] | < 100 nM | – | 5000 to 20000 nM | – | 1000 to 5000 nM | – | –
Cc1cc(-c2cc(Cl)ccc2OCCn2c(C)nc3c(c2=O)CC(N(C)CCOC(F)(F)F)CC3)c2scc(C(=O)NS(C)(=O)=O)c2n1 (stereo not drawn) [Compound 55] | < 100 nM | – | < 5000 nM | – | < 1000 nM | – | –
Cc1cc(-c2cc(Cl)ccc2OCCn2c(C)nc3c(c2=O)CC(N2CCC4(CN(C)C4)C2)CC3)c2scc(C(=O)O)c2n1 (stereo not drawn) [Compound 34] | < 100 nM | – | > 20000 nM | – | > 5000 nM | – | –
Cc1cc(-c2cc(Cl)ccc2OCCn2c(C)nc3c(c2=O)CC(N(C)CC(F)F)CC3)c2scc(C(=O)O)c2n1 (stereo not drawn) [Compound 58] | < 100 nM | – | < 5000 nM | – | < 1000 nM | – | –
Cc1cc(-c2cc(Cl)ccc2OCCn2c(C)nc3c(c2=O)CC(N(C)C2CC(F)(F)C2)CC3)c2scc(C(=O)NS(C)(=O)=O)c2n1 (stereo not drawn) [Compound 63] | < 100 nM | – | < 5000 nM | – | < 1000 nM | – | –
Cc1cc(-c2cc(Cl)ccc2OCCn2c(C)nc3c(c2=O)CC(N(C2CC2)C2CC(F)(F)C2)CC3)c2scc(C(=O)O)c2n1 (stereo not drawn) [Compound 76] | < 100 nM | – | < 5000 nM | – | < 1000 nM | – | –
CC(=O)N(C)C1CCc2nc(C)n(CCOc3ccc(Cl)cc3-c3cccc(C(=O)O)c3)c(=O)c2C1 (stereo not drawn) [Compound 15] | 500 to 5000 nM | – | > 20000 nM | – | > 5000 nM | – | –
Cc1cc(-c2cc(Cl)ccc2OCCn2c(C)nc3c(c2=O)CC(N(C)C2CCC2)CC3)c2scc(C(=O)O)c2n1 (stereo not drawn) [Compound 91] | < 100 nM | – | < 5000 nM | – | < 1000 nM | – | –
Cc1nc2c(c(=O)n1CC#Cc1ccc(Cl)cc1-c1ccnc3c(C(=O)O)csc13)CC(N(C)C1CC(F)(F)C1)CC2 (stereo not drawn) [Compound 86] | < 100 nM | – | < 5000 nM | – | < 1000 nM | – | –
Cc1cc(-c2cc(Cl)ccc2OCCn2c(C)nc3c(c2=O)CC(N2CC4COCC4C2)CC3)c2scc(C(=O)O)c2n1 (single isomer, unassigned) [Compound 67] | < 100 nM | – | < 5000 nM | – | < 1000 nM | – | –
CNC1CCc2nc(C)n(CCOc3ccc(Cl)cc3-c3cccc(C(=O)O)c3)c(=O)c2C1 (stereo not drawn) [Compound 2] | < 100 nM | – | – | – | – | > 5000 nM | < 5000 nM
Cc1nc2c(c(=O)n1CCOc1ccc(Cl)cc1-c1cccc(C(=O)O)c1)CC(N(C)C)CC2 (single isomer, unassigned) [Compound 24] | < 100 nM | 5000 to 20000 nM | – | – | < 1000 nM | – | –
Cc1cc(-c2cc(Cl)ccc2OCCn2c(C)nc3c(c2=O)CC(N2CC(C)(N(C)C)C2)CC3)c2scc(C(=O)O)c2n1 (stereo not drawn) [Compound 23] | < 100 nM | – | > 20000 nM | – | > 5000 nM | – | –
CO[C@H]1CCN([C@@H]2CCc3nc(C)n(CCOc4ccc(Cl)cc4-c4cc(C)nc5c(C(=O)O)csc45)c(=O)c3C2)C1 (single isomer, unassigned) [Compound 48] | < 100 nM | – | < 5000 nM | – | < 1000 nM | – | –
Cc1cc(-c2cc(Cl)ccc2OCCn2c(C)nc3c(c2=O)CC(N2CC4(CN(C)C4)C2)CC3)c2scc(C(=O)O)c2n1 (stereo not drawn) [Compound 35] | < 100 nM | – | > 20000 nM | – | > 5000 nM | – | –
Cc1cc(-c2cc(Cl)ccc2OCCn2c(C)nc3c(c2=O)CC(N2CCCCC2)CC3)c2scc(C(=O)O)c2n1 (single isomer, unassigned) [Compound 250] | < 100 nM | < 5000 nM | – | < 1000 nM | – | – | –

Second part, led by results:

IC50 (human eIF4E protein) | IC50 [2] | IC50 ([2]; Homo sapiens, COLO 205, 72 h) | Compound | IC50 [1, 3] | IC50 [1, 4] | IC50 ([1]; Homo sapiens, Flp-In-293, 24 h, read-out: DLA 205 IC50, dual luciferase assay, Flp-In-293 reporter cells, 24 hours, Fluc/Rluc ratio) | IC50 ([2]; Homo sapiens)
500 to 5000 nM | > 20000 nM | – | Cc1cc(-c2cc(Cl)ccc2OCCn2c(C)nc3c(c2=O)CC(N2CC(F)(F)C2)CC3)c2sccc2n1 (single isomer, unassigned) [Compound 341] | > 5000 nM | – | – | –
< 100 nM | – | < 5000 nM | Cc1cc(-c2cc(Cl)ccc2OCCn2c(C)nc3c(c2=O)CC(N2CC(C(F)(F)F)C2)CC3)c2scc(C(=O)NS(C)(=O)=O)c2n1 (single isomer, unassigned) [Compound 321] | – | < 1000 nM | – | –
< 100 nM | – | < 5000 nM | Cc1cc(-c2cc(Cl)ccc2OCCn2c(C)nc3c(c2=O)CC(N(C2CCC2)C2CC2)CC3)c2scc(C(=O)NS(C)(=O)=O)c2n1 (stereo not drawn) [Compound 317] | – | < 1000 nM | – | –
< 100 nM | < 5000 nM | – | Cc1cc(-c2cc(Cl)ccc2OCCn2c(C)nc3c(c2=O)CC(N(C)CC2(C)COC2)CC3)c2scc(C(=O)NS(C)(=O)=O)c2n1 (single isomer, unassigned) [Compound 305] | < 1000 nM | – | – | –
< 100 nM | 5000 to 20000 nM | – | Cc1cc(-c2cc(Cl)ccc2OCCn2c(C)nc3c(c2=O)CC(N(C)C2CC2)CC3)c2scc(C(=O)NS(=O)(=O)c3ccncc3)c2n1 (single isomer, unassigned) [Compound 285] | 1000 to 5000 nM | – | – | –
< 100 nM | < 5000 nM | – | Cc1cc(-c2cc(Cl)ccc2OCCn2c(C)nc3c(c2=O)CC(N(C)Cc2ccncc2)CC3)c2scc(C(=O)O)c2n1 (single isomer, unassigned) [Compound 354] | < 1000 nM | – | – | –
< 100 nM | 5000 to 20000 nM | – | Cc1nc2c(c(=O)n1CC#Cc1ccc(Cl)cc1-c1ccnc3c(C(=O)NS(C)(=O)=O)csc13)CC(N1CCCCC1)CC2 (single isomer, unassigned) [Compound 316] | 1000 to 5000 nM | – | – | –
< 100 nM | – | < 5000 nM | Cc1cc(-c2cc(Cl)ccc2OCCn2c(C)nc3c(c2=O)CC(N(C)C2CC24CCC4)CC3)c2scc(C(=O)O)c2n1 (stereo not drawn) [Compound 262] | – | < 1000 nM | – | –
< 100 nM | – | < 5000 nM | Cc1cc(-c2cc(Cl)ccc2OCCn2c(C)nc3c(c2=O)CC(N(C)C2CCCC2(F)F)CC3)c2scc(C(=O)O)c2n1 (single isomer, unassigned) [Compound 300] | – | < 1000 nM | – | –
< 100 nM | – | < 5000 nM | Cc1cc(-c2cc(Cl)ccc2OCCn2c(C)nc3c(c2=O)CC(N(C)C2CCC(F)(F)C2)CC3)c2scc(C(=O)O)c2n1 (single isomer, unassigned) [Compound 337] | – | < 1000 nM | – | –
100 to 500 nM | – | 5000 to 20000 nM | Cc1cc(-c2cc(Cl)ccc2OCCn2c(C)nc3c(c2=O)CC(N(CC(F)(F)F)C2CC2)CC3)c2scc(C(=O)NS(C)(=O)=O)c2n1 (single isomer, unassigned) [Compound 308] | – | 1000 to 5000 nM | – | –
500 to 5000 nM | – | > 20000 nM | Cc1cc(-c2cc(Cl)ccc2OCCn2c(C)nc3c(c2=O)CC(N(C)C2CC2)CC3)c2c(n1)c(C(=O)O)cn2C (stereo not drawn) [Compound 277] | – | > 5000 nM | – | –
100 to 500 nM | – | 5000 to 20000 nM | Cc1cc(-c2cc(Cl)ccc2OCCn2c(C)nc3c(c2=O)CC(N(C)C2(c4ccc(F)cc4)CC2)CC3)c2scc(C(=O)O)c2n1 (single isomer, unassigned) [Compound 280] | – | 1000 to 5000 nM | – | –
< 100 nM | – | < 5000 nM | Cc1cc(-c2cc(Cl)ccc2OCCn2c(C)nc3c(c2=O)CC(N(C)CC2CC(F)(F)C2)CC3)c2scc(C(=O)NS(C)(=O)=O)c2n1 (single isomer, unassigned) [Compound 256] | – | < 1000 nM | – | –
< 100 nM | – | < 5000 nM | Cc1cc(-c2cc(Cl)ccc2OCCn2c(C)nc3c(c2=O)CC(N(C)Cc2ccncc2)CC3)c2scc(C(=O)NS(C)(=O)=O)c2n1 (single isomer, unassigned) [Compound 330] | – | < 1000 nM | – | –
< 100 nM | – | < 5000 nM | Cc1nc2c(c(=O)n1CC#Cc1ccc(Cl)cc1-c1ccnc3c(C(=O)NS(C)(=O)=O)csc13)CC(N1CCCCC1)CC2 (single isomer, unassigned) [Compound 315] | – | < 1000 nM | – | –
< 100 nM | < 5000 nM | – | Cc1cc(-c2cc(Cl)ccc2OCCn2c(C)nc3c(c2=O)CC(N(C)C2CC2)CC3)c2scc(C(=O)O)c2n1 (single isomer, unassigned) [Compound 336] | < 1000 nM | – | – | –
< 100 nM | – | < 5000 nM | Cc1cc(-c2cc(Cl)ccc2OCCn2c(C)nc3c(c2=O)CC(N(C)C2CC2)CC3)c2scc(C(=O)NS(C)(=O)=O)c2n1 (single isomer, unassigned) [Compound 302] | – | < 1000 nM | – | –
< 100 nM | – | < 5000 nM | Cc1cc(-c2cc(Cl)ccc2OCCn2c(C)nc3c(c2=O)C[C@@H](N2CC[C@H](F)C2)CC3)c2scc(C(=O)O)c2n1 (single isomer, unassigned) [Compound 310] | – | < 1000 nM | – | –
< 100 nM | – | < 5000 nM | Cc1cc(-c2cc(Cl)ccc2OCCn2c(C)nc3c(c2=O)C[C@H](N2CCC[C@@H](F)C2)CC3)c2scc(C(=O)O)c2n1 (single isomer, unassigned) [Compound 323] | – | < 1000 nM | – | –
